Results: US11155573B2, “Bile salt hydrolase probe and method of making and using the same” (Battelle Memorial Institute, priority 2017, dated 2021)

Key:
[1] = target: T1, purified recombinant Lactobacillus plantarum BSH (Lactiplantibacillus plantarum, UniProt Q06115); experiment: BA-ABP labeling of purified BSH; assay type: binding
T1 sequence (Q06115 1-324): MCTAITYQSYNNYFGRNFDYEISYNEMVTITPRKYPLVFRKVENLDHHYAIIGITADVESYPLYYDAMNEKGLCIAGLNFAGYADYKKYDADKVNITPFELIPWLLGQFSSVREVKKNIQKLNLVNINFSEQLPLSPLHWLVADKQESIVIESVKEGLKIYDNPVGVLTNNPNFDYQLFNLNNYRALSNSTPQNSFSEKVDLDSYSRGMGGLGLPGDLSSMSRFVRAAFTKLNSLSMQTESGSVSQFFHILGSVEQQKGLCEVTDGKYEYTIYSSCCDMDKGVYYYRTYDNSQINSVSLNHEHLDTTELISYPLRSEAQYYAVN
Procedure: Binding of BA-ABP to purified recombinant Lactobacillus plantarum BSH was assessed through incubation with probe in buffer (FIG. 18A). […] Additionally, labeling was time-dependent.

BSH [2] = target: T2, BSH (Lactiplantibacillus plantarum, UniProt Q06115); experiment: BA-ABP labeling of purified BSH added to Escherichia coli bacterial lysate; assay type: binding
T2 sequence (Q06115 1-324): T1 sequence (Q06115 1-324)
Procedure: (§1) The BSH probes were then assayed for retention of function in the presence of a complex cell lysate. Purified BSH was added to an organism that is not known to endogenously express BSH to precisely control this variable. […] After confirming that the BSH-ABP is capable of labeling BSH in complex biological mixtures, application of the probe was assayed for detection of endogenous BSH. L. plantarum was used because its expression of BSH is well-documented, and this organism is found in many popular over-the-counter probiotic formulations for support of healthy cholesterol levels.

BSH [3] = experiment: Probe labeling of endogenous BSH in L. plantarum lysate; assay type: binding, Lactobacillus plantarum
Procedure: as §1

BSH [4] = experiment: In vivo probe labeling in L. plantarum; assay type: cell-based, Lactobacillus plantarum
Procedure: as §1

[5] = test system: human gut microbiome lysate; experiment: BSH ABP labeling in human gut microbiome lysate; assay type: binding
Procedure: The probes were assayed for activity in human gut microbiome extracts.

purified BSH [6] = experiment: GCA and iodoacetamide competition assay; assay type: biochemical; conditions: CA-AMCA 150 μM, BSH 10 μg/ml
[7] = test system: endogenously expressed BSH in L. plantarum lysate; experiment: Lactobacillus plantarum lysate assay; assay type: biochemical; conditions: CAPE 2 mM
Procedure: Reaction volumes of 100 μL were used in Microfluor1 black flat bottom microtiter 96 well plates (Thermo Scientific). […] A 50 μL solution of probe (300 μM) in buffer with 5% DMSO was then added to initiate the reaction. Reactions were immediately placed in a plate reader (SPECTRAmax Gemini XS) pre-warmed to 37° C., and reaction progress was monitored at 450 nm (excitation 350 nm) for 20 minutes.

L. plantarum cells = experiment: Whole-cell Lactobacillus plantarum assay; assay type: cell-based; conditions: varying amount of CAPE
Procedure: A starter culture was created by inoculation of 5 ml MRS broth from a L. plantarum colony grown on MRS agar. The starter culture was incubated overnight at 37° C. overnight. The 5 ml starter culture was then added to 95 ml fresh MRS broth and grown until the optical density at 600 nm reached 0.7. At that point, the cells were pelleted via centrifugation. The cell pellet was resuspended in 15 ml PBS, and centrifuged. The cells were additionally washed with PBS and pelleted once more. The resulting pellet was suspended in 380 μl PBS. The cell suspension was then serially diluted two-fold. […]

purified BSH [8] = conditions: read-out: Michaelis-Menten constant (Km); turnover by purified BSH, 0.1 M sodium phosphate pH 6, 37° C.
Procedure: Reaction volumes of 100 μL were used in Microfluor1 black flat bottom microtiter 96 well plates (Thermo Scientific). 50 μL of enzyme (40 μg/ml) in buffer (0.1 M sodium phosphate, pH=6) was added to each well. […] Reactions were immediately placed in a plate reader (SPECTRAmax Gemini XS) pre-warmed to 37° C., and reaction progress was monitored at 450 nm (excitation 350 nm) for 20 minutes. Reactions had final concentrations of 20 μg/ml enzyme, 0.1 M sodium phosphate (pH 6), and 2.5% DMSO.
The initial rate data was used for determination of Km values. For Km determination, the kinetic values were obtained directly from nonlinear regression of substrate-velocity curves in the presence of varying concentrations of BA-AMCA. The equation Y=(Vmax*X)/(Km+X*(1+X/Ki)), X=substrate concentration (μM) and Y=enzyme velocity (RFU/s); was used in the nonlinear regression. Each BA-AMCA Km value was determined using at least three independent experiments.

[9] = substrate: Cc1c(CC(=O)O)c(=O)oc2cc(NC(=O)CC[C@@H](C)[C@H]3CC[C@H]4C5[C@H](O)C[C@@H]6C[C@H](O)CC[C@]6(C)[C@H]5C[C@H](O)[C@]34C)ccc12; experiment: purified protein, by the assay type; assay type: biochemical; conditions: other: individual replicate, purified BSH 20 μg/ml, 0.1 M sodium phosphate pH 6, 2.5% DMSO, 37° C., 20 min, Ex 350/Em 450 nm
Excerpt: Fluorescent signals for substrate turnover could be detected with as low as mid-nanomolar enzyme concentrations, which is considerably less enzyme when compared to micromolar concentrations required for conventional ninhydrin assays with purified BSH. […] Furthermore, robust signals could be reliably observed in the low micromolar substrate concentration range before any indication of substrate inhibition. Product formation was additionally confirmed through coupling of the BSH reaction to a secondary HPLC-based assay.

C#CCNC(=O)C=CCC[C@@H](C)[C@H]1CC[C@H]2C3[C@H](O)C[C@@H]4C[C@H](O)CC[C@]4(C)[C@H]3C[C@H](O)[C@]12C (stereo partly drawn) [BA-ABP]
labeling of purified BSH, time dependence [1]: time-dependent
labeling of purified BSH upon addition of free bile salts ([1]; competition with native substrate): could be attenuated
labeling of purified BSH, dose dependence ([1]; incubation with probe in buffer): dose-dependent
fluorescent gel labeling, BSH added to lysate of organism not expressing BSH (BSH [2]): a fluorescent band that is consistent with BSH labeling, along with several other unknown targets
fluorescence imaging of labeling in L. plantarum lysate (BSH [3]): a band consistent with BSH, along with several others
labeling in vivo in L. plantarum (BSH [4]): Labeling in vivo was also confirmed
labeling in gut microbiome lysate [5]: labeling was observed

NC(=O)CI [iodoacetamide, reference compound]
effect on CA-AMCA turnover by BSH (purified BSH [6]; IAA 12 mM): completely ablated substrate turnover
effect of pre-treatment on BA-ABP binding to BSH ([1]; pre-treatment before probe): Binding was ablated

C[C@H](CCC(=O)NCC(=O)O)[C@H]1CC[C@H]2[C@@H]3[C@H](O)C[C@@H]4C[C@H](O)CC[C@]4(C)[C@H]3C[C@H](O)[C@]12C [glycocholic acid]
effect on CA-AMCA turnover by BSH (purified BSH [6]; GCA 10 mM): Attenuated activity

O=C(/C=C/c1ccc(O)c(O)c1)OCCc1ccccc1 [CAPE, caffeic acid phenethyl ester]
effect on CA-AMCA turnover in L. plantarum lysate [7]: Activity was not observed
effect on probe velocities in whole-cell suspension (L. plantarum cells): probe velocities were consistent with the amount of CAPE added

Cc1c(CC(=O)O)c(=O)oc2cc(NC(=O)CC[C@@H](C)[C@H]3CC[C@H]4C5[C@H](O)C[C@@H]6C[C@H](O)CC[C@]6(C)[C@H]5C[C@H](O)[C@]34C)ccc12 (stereo partly drawn) [CA-AMCA]
Km (purified BSH [8]): 26 µM

B1: bile salt hydrolase (BSH), purified (Lactiplantibacillus plantarum WCFS1) (protein)
chain: T1 sequence (Q06115 1-324)
Km ([9]; FIG. 8B): 31.48 µM
Km ([9]; FIG. 8C): 22.57 µM
